# ChEMBL document CHEMBL1201862, “PubChem BioAssay data set” (2004)
#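 96-well plates; 48 h exposure; 5 concentrations. Endpoints by linear interpolation between flanking doses. Not reached: highest tested concentration assigned. Abbreviation: GI50, concentration required for 50% inhibition of growth.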 The source made the active and inactive calls. No stated cut-off is given here; in the data, active = GI50 up to about 1.1 µM and inactive = higher.
# What was measured:
# Assay in all cases: NCI anticancer screen, dose series, 48 h
# EKVX = test system: EKVX
# HOP-18 = test system: HOP-18
# UACC-62 = test system: UACC-62
# SK-MEL-28 = test system: SK-MEL-28
# ACHN = test system: ACHN
# SF-539 = test system: SF-539
# 786-0 = test system: 786-0
# A498 = test system: A498
# A549 = test system: A549
# LOX IMVI = test system: LOX IMVI
# NCI-H460 = test system: NCI-H460
# SK-MEL-2 = test system: SK-MEL-2
# HCC 2998 = test system: HCC 2998
# OVCAR-8 = test system: OVCAR-8
# RPMI-8226 = test system: RPMI-8226
# HOP-92 = test system: HOP-92
# HCT-15 = test system: HCT-15
# COLO 205 = test system: COLO 205
# OVCAR-3 = test system: OVCAR-3
# SK-OV-3 = test system: SK-OV-3
# NCI-H522 = test system: NCI-H522
# SNB-19 = test system: SNB-19
# HOP-62 = test system: HOP-62
# DMS-273 = test system: DMS-273
# UACC-257 = test system: UACC-257
# Malme-3M = test system: Malme-3M
# SN12C = test system: SN12C
# KM-20L2 = test system: KM-20L2
# NCI-H226 = test system: NCI-H226
# CCRF-CEM = test system: CCRF-CEM
# DLD-1 = test system: DLD-1
# IGROV-1 = test system: IGROV-1
# HT-29 = test system: HT-29
# SNB-75 = test system: SNB-75
# HL-60 = test system: HL-60
# RXF 631 = test system: RXF 631
# SK-MEL-5 = test system: SK-MEL-5
# KM12 = test system: KM12
# UO-31 = test system: UO-31
# HCT-116 = test system: HCT-116
# CAKI-1 = test system: CAKI-1
# NCI-H23 = test system: NCI-H23
# TK-10 = test system: TK-10
# MOLT-4 = test system: MOLT-4
# DMS-114 = test system: DMS-114
# SR = test system: SR
# SF-268 = test system: SF-268
# M19-MEL = test system: M19-MEL
# K562 = test system: K562
# M14 = test system: M14
# OVCAR-4 = test system: OVCAR-4
# U-251 = test system: U-251
# RXF 393 = test system: RXF 393
# SW-620 = test system: SW-620
# SF-295 = test system: SF-295
# OVCAR-5 = test system: OVCAR-5
# SNB-78 = test system: SNB-78
# LXFL 529 = test system: LXFL 529
compound,measurement,setting,value
CC1=C(/C=C/C(C)=C/C=C/C(C)=C/C=C/C=C(C)/C=C/C=C(C)/C=C/C2=C(C)C(=O)C(O)CC2(C)C)C(C)(C)CC(O)C1=O (stereo not given),GI50,EKVX,> 100 µM (inactive)
same,GI50,HOP-18,> 100 µM (inactive)
same,GI50,UACC-62,> 100 µM (inactive)
same,GI50,SK-MEL-28,> 100 µM (inactive)
same,GI50,ACHN,> 100 µM (inactive)
same,GI50,SF-539,> 100 µM (inactive)
same,GI50,786-0,> 100 µM (inactive)
same,GI50,A498,> 100 µM (inactive)
same,GI50,A549,> 100 µM (inactive)
same,GI50,LOX IMVI,> 100 µM (inactive)
same,GI50,NCI-H460,> 100 µM (inactive)
same,GI50,SK-MEL-2,> 100 µM (inactive)
same,GI50,HCC 2998,> 100 µM (inactive)
same,GI50,OVCAR-8,> 100 µM (inactive)
same,GI50,RPMI-8226,> 100 µM (inactive)
same,GI50,HOP-92,> 100 µM (inactive)
same,GI50,HCT-15,> 100 µM
same,GI50,COLO 205,> 100 µM (inactive)
same,GI50,OVCAR-3,> 100 µM (inactive)
same,GI50,SK-OV-3,> 100 µM (inactive)
same,GI50,NCI-H522,> 100 µM (inactive)
same,GI50,SNB-19,> 100 µM (inactive)
same,GI50,HOP-62,> 100 µM (inactive)
same,GI50,DMS-273,> 100 µM (inactive)
same,GI50,UACC-257,> 100 µM (inactive)
same,GI50,Malme-3M,> 100 µM (inactive)
same,GI50,SN12C,> 100 µM (inactive)
same,GI50,KM-20L2,> 100 µM (inactive)
same,GI50,NCI-H226,> 100 µM (inactive)
same,GI50,CCRF-CEM,> 100 µM (inactive)
same,GI50,DLD-1,> 100 µM (inactive)
same,GI50,IGROV-1,> 100 µM (inactive)
same,GI50,HT-29,> 100 µM (inactive)
same,GI50,SNB-75,> 100 µM (inactive)
same,GI50,HL-60,> 100 µM (inactive)
same,GI50,RXF 631,> 100 µM (inactive)
same,GI50,SK-MEL-5,> 100 µM (inactive)
same,GI50,KM12,> 100 µM (inactive)
same,GI50,UO-31,> 100 µM (inactive)
same,GI50,HCT-116,> 100 µM (inactive)
same,GI50,CAKI-1,> 100 µM (inactive)
same,GI50,NCI-H23,> 100 µM (inactive)
same,GI50,TK-10,> 100 µM (inactive)
same,GI50,MOLT-4,> 100 µM (inactive)
same,GI50,DMS-114,> 100 µM (inactive)
same,GI50,SR,> 100 µM (inactive)
same,GI50,SF-268,> 100 µM (inactive)
same,GI50,M19-MEL,> 100 µM (inactive)
same,GI50,K562,> 100 µM (inactive)
same,GI50,M14,> 100 µM (inactive)
same,GI50,OVCAR-4,> 100 µM (inactive)
same,GI50,U-251,> 100 µM (inactive)
same,GI50,RXF 393,> 100 µM (inactive)
same,GI50,SW-620,> 100 µM (inactive)
same,GI50,SF-295,> 100 µM (inactive)
same,GI50,OVCAR-5,> 100 µM (inactive)
same,GI50,SNB-78,> 100 µM (inactive)
C[C@@]1(O)CC[C@]2(C)C3CCCC3[C@H]12 (stereo not given in full),GI50,EKVX,> 100 µM (inactive)
same,GI50,HOP-18,> 100 µM (inactive)
same,GI50,UACC-62,> 100 µM (inactive)
same,GI50,SK-MEL-28,> 100 µM (inactive)
same,GI50,ACHN,> 100 µM (inactive)
same,GI50,SF-539,> 100 µM (inactive)
same,GI50,786-0,> 100 µM (inactive)
same,GI50,A498,> 100 µM (inactive)
same,GI50,A549,> 100 µM (inactive)
same,GI50,LOX IMVI,> 100 µM (inactive)
same,GI50,NCI-H460,> 100 µM (inactive)
same,GI50,SK-MEL-2,> 100 µM (inactive)
same,GI50,HCC 2998,> 100 µM (inactive)
same,GI50,OVCAR-8,> 100 µM (inactive)
same,GI50,RPMI-8226,> 100 µM (inactive)
same,GI50,HOP-92,> 100 µM (inactive)
same,GI50,HCT-15,> 100 µM
same,GI50,COLO 205,> 100 µM (inactive)
same,GI50,OVCAR-3,> 100 µM (inactive)
same,GI50,SK-OV-3,> 100 µM (inactive)
same,GI50,NCI-H522,> 100 µM (inactive)
same,GI50,SNB-19,> 100 µM (inactive)
same,GI50,HOP-62,> 100 µM (inactive)
same,GI50,DMS-273,> 100 µM (inactive)
same,GI50,UACC-257,> 100 µM (inactive)
same,GI50,Malme-3M,> 100 µM (inactive)
same,GI50,SN12C,> 100 µM (inactive)
same,GI50,KM-20L2,> 100 µM (inactive)
same,GI50,NCI-H226,> 100 µM (inactive)
same,GI50,CCRF-CEM,> 100 µM (inactive)
same,GI50,DLD-1,> 100 µM (inactive)
same,GI50,IGROV-1,> 100 µM (inactive)
same,GI50,HT-29,> 100 µM (inactive)
same,GI50,SNB-75,> 100 µM (inactive)
same,GI50,HL-60,> 100 µM (inactive)
same,GI50,RXF 631,> 100 µM (inactive)
same,GI50,SK-MEL-5,> 100 µM (inactive)
same,GI50,KM12,> 100 µM (inactive)
same,GI50,UO-31,> 100 µM (inactive)
same,GI50,HCT-116,> 100 µM (inactive)
same,GI50,CAKI-1,> 100 µM (inactive)
same,GI50,NCI-H23,> 100 µM (inactive)
same,GI50,TK-10,> 100 µM (inactive)
same,GI50,MOLT-4,> 100 µM (inactive)
same,GI50,LXFL 529,> 100 µM (inactive)
same,GI50,DMS-114,> 100 µM (inactive)
same,GI50,SR,> 100 µM (inactive)
same,GI50,SF-268,> 100 µM (inactive)
same,GI50,M19-MEL,> 100 µM (inactive)
same,GI50,K562,> 100 µM (inactive)
same,GI50,M14,> 100 µM (inactive)
same,GI50,OVCAR-4,> 100 µM (inactive)
same,GI50,U-251,> 100 µM (inactive)
same,GI50,RXF 393,> 100 µM (inactive)
same,GI50,SW-620,> 100 µM (inactive)
same,GI50,SF-295,> 100 µM (inactive)
same,GI50,OVCAR-5,> 100 µM (inactive)
same,GI50,SNB-78,> 100 µM (inactive)
